Test results taken from US10466253B2, “Molecular flux rates through critical pathways measured by stable isotope labeling in vivo, as biomarkers of drug action and disease activity” (The Regents of the University of California, priority 2004, dated 2019).
“Also recorded” adds a separate entry of the source. Like-named read-outs stand apart in the source and are kept apart here.

What was measured:
SW 1753 cells = test: DNA methylation in cultured tumor cells (2H3-methyl methionine labeling, GC-MS of methylcytosine); format: cell-based; details: for inhibition at 0.25 µM: read-out: inhibition of methylation (reduction)
[1] = tested on: EMT7 mouse mammary carcinoma cells; test: In vivo tumor cell proliferation over 5 days of chemotherapy; parameters: species or system female balb/C mice; details: Gem 125 mg/kg every other day, HU 500 mg/kg daily
bone marrow = test: Bone marrow proliferation in tumor-bearing mice over 5 days of chemotherapy; format: in vivo, female balb/C mice; details: Gem 125 mg/kg every other day, HU 500 mg/kg daily
[2] = Tolerability of maintained 2H2O body water enrichment; format: in vivo, humans and experimental animals; details: 1-10% of total body water labeled, weeks or months; >100 human subjects
Text: Relatively high body water enrichments of ^2H2O (e.g., 1-10% of the total body water is labeled) may be achieved relatively inexpensively using the techniques of the invention. […] This finding in a large number of human subjects (>100 people) is contrary to previous concerns about vestibular toxicities at high doses of ^2H2O. The Applicant has discovered that as long as rapid changes in body water enrichment are prevented (e.g., by initial administration in small, divided doses), high body water enrichments of ^2H2O can be maintained with no toxicities. For example, the low expense of commercially available ^2H2O allows long-term maintenance of enrichments in the 1-5% range at relatively low expense (e.g., calculations reveal a lower cost for 2 months labeling at 2% ^2H2O enrichment, and thus 7-8% enrichment in the alanine precursor pool, than for 12 hours labeling of ^2H-leucine at 10% free leucine enrichment, and thus 7-8% enrichment in leucine precursor pool for that period).

[3] = tested on: hippocampal neuroprogenitor cells; test: Hippocampal neuroprogenitor cell proliferation (2H2O labeling of DNA, GC/MS); format: in vivo, male 129SvEv mice
Experimental: FIG. 7 depicts the effects of chronic imipramine treatment on hippocampal neuroprogenitor cell proliferation in male 129SvEv mice. […] Mice received 3 weeks of treatment with imipramine (20 mg/kg/day) in drinking water and were labeled with 10% ^2H2O during the last 3 days of treatment. Data represent mean±SD, n=4 per group.
FIG. 8 depicts the effects of chronic fluoxetine treatment on hippocampal neuroprogenitor cell proliferation in male 129SvEv mice. […] Mice received 2 weeks of treatment with fluoxetine (10 mg/kg/day) in drinking water and were labeled with 10% ^2H2O during the last week of treatment.
DNA is then isolated from the tissue or cell of interest using a Qiagen kit (Qiagen, Valencia, Calif.), following the manufacturer's protocol. Isolated DNA, eluted in water, is adjusted to pH 9-10 and hydrolyzed enzymatically; deoxyribose is released selectively from purine (dA/dG) deoxynucleotides and converted to the pentane tetraacetate derivative. Alternatively, a pentafluorobenzyl derivative is prepared by reaction with excess pentafluorobenzyl hydroxylamine under acidic conditions, followed by acetylation with acetic anhydride. Either type of derivative is subsequently extracted with an organic solvent, dried with sodium sulfate, and analyzed by GC/MS as described, supra. […]

[4] = tested on: bone marrow cells (total, lymphoid, myeloid, other); test: Bone marrow cell subset proliferation after hydroxyurea (myelosuppression)
mature neurons = test: Proliferation of mature neurons (neurogenesis; flow cytometry isolated neurons); format: in vivo; details: imipramine-treated vs normal adult mice
Text: FIG. 27 depicts the proliferation of mature neurons in normal and antidepressant (imipramine)-treated adult mice. Neurons were isolated by flow cytometry and analyzed as described in Example 2, infra.
Animals are sacrificed, brain is removed and the hippocampus is dissected out. […] Different durations of label administration can be used to differentiate between the kinetics of rapidly proliferating cells, such as the progenitor cell population, compared to the slower rate of label incorporation in neuronal cells. In order to assess neurogenesis directly, ^2H2O-labeled […] are sacrificed, the brain is removed, the hippocampus is dissected out and cut into 0.5 mm slices followed by digestion/dissociation with papain and trypsin. The isolated cells are stained for neuronal markers and sorted by flow cytometry. DNA is isolated and labeling is measured as described, supra.

[5] = tested on: endothelial cells from xenograft tumors; test: Tumor endothelial cell proliferation in xenograft tumors (angiogenesis); format: in vivo, Balb/c Nu-/Nu- mice; details: two weeks drug treatment; vs vehicle (saline)/untreated group
Experimental: FIG. 18 depicts proliferation of endothelial cells from xenograft tumors in mice treated with an anti-angiogenic drug (Avastin) or a vehicle (saline). Endothelial cell proliferation is suppressed in animals treated with the drug.
The kinetics of angiogenesis are measured in liver and tumor xenografts. Balb/c Nu−/Nu− mice are transplanted with human breast tumor cells. After labeling with ^2H2O, individual animals are sacrificed, and both tumor tissue and liver tissue are harvested from the same animal. The tissue is then digested with collagenase (1 mg/mL) into a single cell suspension. Endothelial cells are enriched by Percoll gradient centrifugation, followed by FACS (sorting on isolection and CD31 positive cells). The proliferation rate of tumor endothelial cells, as well as liver endothelial cells is then measured by purifying, processing, derivatizing, and analyzing the DNA from the isolated endothelial cells, as described in example 2, supra.

microglia = test: Microglial proliferation assay of neuroinflammation (2H2O labeling, FACS-isolated microglia); format: in vivo, mice; details: LPS i.p. (1 and 4 mg/kg every other day in FIG. 14); vs control; p<0.05 / p<0.01 ANOVA/Tukey
Experimental: FIG. 14 depicts microglial response to the neuroinflammatory toxin lipopolysacharride (LPS). LPS is administered every other day to mice intraperitoneally at the two doses indicated (1 and 4 mg/kg body weight). ^2H2O was administered concurrently. Some animals were harvested at each of the indicated time points, and microglia were isolated and analyzed for deuterium incorporation. […] Error bars indicate standard deviation.
FIG. 15 depicts the effects of two anti-inflammatory chemotherapeutic agents (dexamethasone and minocycline) on microglial proliferation. Mice were given ^2H2O and either intraperitoneal lipopolysaccharide (LPS) to induce neuroinflammation, or a vehicle (control). Mice given LPS were treated with either a vehicle or dexamethasone or minocycline. Microglia were then isolated and analyzed for deuterium incorporation as described herein.
Mice are labeled with ^2H2O for an appropriate period. Mice are anesthetized and perfused with 10 mL ice cold PBS (trans-cardiac perfusion). Brains are immediately harvested and placed on ice in cold PBS. […]
The resulting cells are stained with the macrophage specific markers F4/80 and CD11b, fixed in 4% paraformaldehyde (PFA), and then isolated by FACS. […] DNA is extracted from sorted cells, hydrolyzed, derivatized, and analyzed by GC/MS as described in Example 2, supra. […]

cerebral cortical tissue = test: Cerebral cortical tissue/cell turnover (2H2O labeling of cortical DNA); details: high dose of LPS
liver collagen synthesis = test: Liver collagen synthesis in CCl4-induced liver fibrosis; details: CCl4-induced liver fibrosis
[6] = single dose 500 mg/kg i.p., 8% 2H2O for subsequent 24 hours, vs vehicle

Nc1ncn([C@H]2C[C@H](O)[C@@H](CO)O2)c(=O)n1 [Decitabine, decitabine]
inhibition at 0.25 µM (SW 1753 cells): 70%

Nc1ccn([C@@H]2O[C@H](CO)[C@@H](O)C2(F)F)c(=O)n1 [Gem, gemcitabine]
tumor cell proliferation [1]: suppressed
tumor cell proliferation ([1]; listed as gemcitabine): reduced
bone marrow proliferation (bone marrow): suppressed

[2H]O[2H] [^2H2O]
toxicity of maintained body water enrichment [2]: without any evidence of toxicity

Nc1ncn([C@@H]2O[C@H](CO)[C@@H](O)[C@H]2O)c(=O)n1 [azacytidine, azacitidine]
inhibition at 0.25 µM (SW 1753 cells; 250 nM, SW 1753 cells, DMEM 10% FBS with 2H3-methyl methionine): < 10%
fraction of methylcytosine that is new (SW 1753 cells; 24-hour labeling period, 125, 250, 500 nM): suppressed

CNCCC(Oc1ccc(C(F)(F)F)cc1)c1ccccc1 (centres unmarked) [fluoxetine]
hippocampal neuroprogenitor cell proliferation ([3]; fluoxetine 10 mg/kg/day in drinking water, 2 weeks, 10% 2H2O during last week, p<0.05 vs vehicle): increases progenitor cell proliferation; also recorded: significant increase

NC(=O)NO [hydroxyurea]
tumor cell proliferation [1]: reduced
tumor cell proliferation ([1]; listed as HU): suppressed
bone marrow proliferation (bone marrow): suppressed
bone marrow proliferation across subsets (TBM, lymphoid, myeloid, other) ([4]; in three cases (indicated by **)): suppressed bone marrow proliferation
proliferation of lymphoid bone marrow cells [4, 6]: statistically significant suppressive effect
proliferation of other bone marrow cells [4, 6]: statistically significant suppressive effect
proliferation of total bone marrow (TBM) [4, 6]: statistically significant suppressive effect

CN(C)CCCN1c2ccccc2CCc2ccccc21 [imipramine]
hippocampal neuroprogenitor cell proliferation ([3]; imipramine 20 mg/kg/day in drinking water, 3 weeks, 10% 2H2O during last 3 days, vs vehicle): increases progenitor cell proliferation; also recorded: significant increase
rate of mature neuron formation (mature neurons): increased formation of mature neurons
rate of mature neuron formation (mature neurons; listed as Imipramine): increased the rate of mature neuron formation

Avastin: Avastin (Genentech, CA), a known anti-angiogenesis drug
tumor endothelial cell proliferation rate [5]: suppressed; also recorded: significantly lower proliferation rate

lipopolysaccharide [LPS]
microglial proliferation (microglia): increased proliferative response; also recorded: increased proliferation; also recorded: statistically significant and dose-dependent increase
cortical tissue turnover (cerebral cortical tissue): affected cortical tissue turnover; also recorded: increased cortical cell turnover

B1: Interferon-gamma: anti-fibrotic agent (protein, UniProt P01579 24-161, looked up)
Interferon gamma: QDPYVKEAENLKKYFNAGHSDVADNGTLFLGILKNWKEESDRKIMQSQIVSFYFKLFKNFKDDQSIQKSVETIKEDMNVKFFNSNKKKRDDFEKLTNYSVTDLNVQRKAIHELIQVMAELSPAAKTGKRKRSQMLFRG
rate of liver collagen synthesis in CCl4-treated mice (liver collagen synthesis): reduce the rate of collagen synthesis
rate of liver collagen synthesis in CCl4-treated mice (liver collagen synthesis; listed as interferon-gamma): suppressed
